Reference: US5852033A, “Methods of treatment using lamellarin-class alkaloids” (Pharma Mar, s.a., priority 1995, dated 1998)
Converted amounts (≈) assume the structure as drawn. Read-outs that look alike come from different tables or passages of the source. Each block holds one compound with its values, some of them ahead of it.

Experiments:
CHOB1 = experiment: LAMELLARINS TOXICITY TO SENSITIVE TUMOR CELL LINE CHOB1 (MTT); assay type: cell-based, chinese hamster; conditions: Cricetulus griseus, 72 h; CHOB1, sensitive, MTT, three days; read-out: ACTIVITY: IC50
Description: (§1) Sensitive and MDR cells were maintained, in logarithmic phase of growth, in Eagle's Minimum Essential Medium, with Earle's Balanced Salts, with non-essential amino acids, with 2.0 mM L-glutamine, without sodium bicarbonate (EMEM/neaa), supplemented with 5% Fetal Calf Serum (FCS), 10^-2 M sodium bicarbonate and 0.1 g/l penicillin G+0.1 g/l streptomycin sulfate.
(§2) In Vitro cell cytotoxicity was determined using the 3-[4,5-dimethylthiazol-2-yl]-2,5-dipheniltetrazolium bromide (MTT), from Sigma Ref:M-2128, for quantitative measurement of cell growth and viability. See, T. Mosmann, "Rapid Colorimetric Assay for Cellular Growth and Survival: Application to Proliferation and Cytotoxicity Assays," Journal of Immunological Methods, 65: 55-63 (1983).
(§3) The tumor cell lines employed have been: P-388 (ATCC CCL 46), suspension culture of a lymphoid neoplasm from a DBA/2 mouse and its corresponding MDR cell line P-388/SCHABEL; CHOB1 (ATCC CCL 16), monolayer culture of chinese hamster ovary and its corresponding MDR cell line CHOC5. See, Rauscher Ill, et al., "Characterization of Auromycin-Resistant Hamster Cell Mutants that Display a Multidrug Resistance Phenotype," Molecular Pharmacology, 38: 198-206 (1990).
(§4) This form of assay employs 96-well cell culture plates […]. Cells were seeded into wells at 1×10^3 cells per well in 100 μl aliquots of EMEM 5% FCS containing different concentrations of the corresponding lamellarins and other compounds (standards) to be tested. Two separate sets of cultures without drugs were seeded, one as control of growth to ensure that cells remained in exponential phase of growth, and another without cells as control of medium. All determinations were carried out in duplicate.
(§5) After three days of incubation at 37° C., 10% CO2 in a 98% humid atmosphere, 150 μg of MTT is added to each well in 50 μl aliquots of assay medium. Plates were incubated for an additional 4 hours and 100 μl aliquots of isopropanol were added to each well. The broad absorption spectrum for the isopropanol solution of this crystal is optimal at 570 nm. Optical density values were obtained with the help of a Dynatech microplate reader and the results of the assay were used to generate graphics from which IC50 was calculated; i.e., wherein the IC50 is the test concentration which produces 50% cell growth inhibition.

P-388/SCHABEL = experiment: Adriamycin toxicity to resistant cells (MDR) in presence or absence of reversing agents, P-388/SCHABEL; assay type: cell-based; conditions: Mus musculus, P388; control, Adriamycin only, R.A. 0 μg/ml
Description: (§6) Gain of Sensitivity (G.S.) = IC50 Control/IC50 R.A.
as §1, §4
(§7) Plates were incubated for an additional 4 hours and 100 μl aliquots of isopropanol were added to each well. The broad absorption spectrum for the isopropanol solution of this crystal is optimal at 570 nm.

CHOC5 = experiment: Adriamycin toxicity to resistant cells (MDR) in presence or absence of reversing agents, CHOC5; assay type: cell-based, chinese hamster; conditions: Cricetulus griseus; control, Adriamycin only, R.A. 0 μg/ml
Description: as §6, §1, §4, §7

CHOC5 (MDR) = experiment: LAMELLARINS TOXICITY TO RESISTANT (MDR) TUMOR CELL LINE CHOC5 (MTT); assay type: cell-based, chinese hamster; conditions: Cricetulus griseus, 72 h; CHOC5 (MDR), MTT, three days; read-out: ACTIVITY: IC50
Description: as §1, §2, §3, §4, §5

P-388 = experiment: LAMELLARINS TOXICITY TO SENSITIVE TUMOR CELL LINE P-388 (MTT); assay type: cell-based; conditions: Mus musculus, P388, 72 h; P-388, sensitive, MTT, three days; read-out: ACTIVITY: IC50
Description: as §1, §2, §3, §4, §5

P-388/SCHABEL (MDR) = experiment: LAMELLARINS TOXICITY TO RESISTANT (MDR) TUMOR CELL LINE P-388/SCHABEL (MTT); assay type: cell-based; conditions: Mus musculus, P388, 72 h; P-388/SCHABEL (MDR), MTT, three days; read-out: ACTIVITY: IC50
Description: as §1, §2, §3, §4, §5

A549 = experiment: Lamellarin in vitro activity vs. tumor cell lines, A549; conditions: for IC50: Homo sapiens
P388 = experiment: Lamellarin in vitro activity vs. tumor cell lines, P388; conditions: Mus musculus
HT-29 = experiment: Lamellarin in vitro activity vs. tumor cell lines, HT-29; assay type: cell-based; conditions: Homo sapiens; HT-29, Table IV
MEL-28 = experiment: Lamellarin in vitro activity vs. tumor cell lines, MEL-28; assay type: cell-based; conditions: Homo sapiens, SK-MEL-28; MEL-28, Table IV

Compound: COc1cccc2c1C(=O)c1c(O)c3c(c(O)c1C2=O)C[C@@](O)(C(=O)CO)C[C@@H]3O[C@H]1C[C@H](N)[C@H](O)[C@H](C)O1 [Adriamycin, reference compound]
IC50 (CHOB1): 0.15 µg/mL (≈ 0.276 µM)
IC50 (P-388/SCHABEL): 1.2 µg/mL
IC50 (CHOC5): 3 µg/mL
IC50 (CHOC5 (MDR)): 3 µg/mL (≈ 5.52 µM)
IC50 (P-388): 0.15 µg/mL (≈ 0.276 µM)
IC50 (P-388/SCHABEL (MDR)): 1.2 µg/mL (≈ 2.21 µM)

Compound: COc1cc(-c2c3n(c4c(=O)oc5cc(O)c(OC)cc5c24)C(O)Cc2c-3cc(OC)c(OC)c2OC)ccc1O (centres unmarked) [Lamellarin A]
IC50 (CHOB1): 0.2 µg/mL (≈ 0.356 µM)
IC50 (CHOC5 (MDR)): 0.4 µg/mL (≈ 0.712 µM)
IC50 (P-388): 0.5 µg/mL (≈ 0.89 µM)
IC50 (P-388/SCHABEL (MDR)): 0.5 µg/mL (≈ 0.89 µM)

Compound: COc1cc(-c2c3c4cc(OC)c(O)cc4oc(=O)c3n3ccc4c(OC)c(OC)c(OC)cc4c23)ccc1O [Lamellarin B]
IC50 (CHOB1): 3 µg/mL (≈ 5.52 µM)
IC50 (CHOC5 (MDR)): 10 µg/mL (≈ 18.4 µM)
IC50 (P-388): 5.5 µg/mL (≈ 10.1 µM)
IC50 (P-388/SCHABEL (MDR)): 5.5 µg/mL (≈ 10.1 µM)

Compound: COc1cc(-c2c3c4cc(OC)c(OC(C)=O)cc4oc(=O)c3n3ccc4cc(OC(C)=O)c(OC)cc4c23)ccc1OC(C)=O [Lamellarin D-triacetate]
IC50 (CHOB1): 0.03 µg/mL (≈ 0.048 µM)
IC50 (CHOC5 (MDR)): 0.04 µg/mL (≈ 0.0639 µM)
IC50 (P-388): 0.07 µg/mL (≈ 0.112 µM)
IC50 (P-388/SCHABEL (MDR)): 0.09 µg/mL (≈ 0.144 µM)

Compound: COc1ccc(-c2c3n(c4c(=O)oc5cc(OC)c(OC)cc5c24)CCc2c-3cc(OC)c(OC)c2OC)cc1OC [Lamellarin I-Methylate]
IC50 (CHOB1): 0.5 µg/mL (≈ 0.872 µM)
IC50 (CHOC5 (MDR)): 2.5 µg/mL (≈ 4.36 µM)
IC50 (P-388): 2.5 µg/mL (≈ 4.36 µM)
IC50 (P-388/SCHABEL (MDR)): 3 µg/mL (≈ 5.23 µM)

Compound: COc1ccc(-c2c3n(c4c(=O)oc5cc(OC(C)=O)c(OC)cc5c24)CCc2c-3cc(OC)c(OC)c2OC)cc1OC [Lamellarin I-acetate]
IC50 (CHOB1): 2.5 µg/mL (≈ 4.16 µM)
IC50 (CHOC5 (MDR)): 5 µg/mL (≈ 8.31 µM)
IC50 (P-388): 5.5 µg/mL (≈ 9.14 µM)
IC50 (P-388/SCHABEL (MDR)): 5.5 µg/mL (≈ 9.14 µM)

IC50 (A549; A549): 1 µg/mL (≈ 1.79 µM)
IC50 (P388; P388): 1 µg/mL (≈ 1.79 µM)
IC50 (HT-29): 2 µg/mL (≈ 3.57 µM)
Compound: COc1cc2c(cc1O)oc(=O)c1c2c(-c2ccc(OC)c(OC)c2)c2n1CCc1c-2cc(OC)c(OC)c1OC [Lamellarin I]
IC50 (A549; A549, read-out: cytotoxicity IC50): ~0.25 µg/mL (≈ 0.447 µM)
IC50 (CHOB1): 0.2 µg/mL (≈ 0.357 µM)
IC50 (CHOC5 (MDR)): 1 µg/mL (≈ 1.79 µM)
IC50 (P388; P388, read-out: cytotoxicity IC50): ~0.25 µg/mL (≈ 0.447 µM)
IC50 (P-388): 2.5 µg/mL (≈ 4.47 µM)
IC50 (P-388/SCHABEL (MDR)): 2.5 µg/mL (≈ 4.47 µM)

IC50 (A549; A549): 0.025 µg/mL (≈ 0.0485 µM)
IC50 (P388; P388): 0.1 µg/mL (≈ 0.194 µM)
IC50 (MEL-28): 2.5 µg/mL (≈ 4.85 µM)
IC50 (HT-29): 2.5 µg/mL (≈ 4.85 µM)
Compound: COc1cc2c(cc1O)CCn1c-2c(-c2ccc(OC)c(OC)c2)c2c3cc(OC)c(O)cc3oc(=O)c21 [Lamellarin J]
in vitro antitumor activities (A549; compared with lamellarins I, K and L, particularly A549 cells): significantly better, particularly against A549 cells, than the lamellarins I, K and L
IC50 (CHOB1): 0.3 µg/mL (≈ 0.582 µM)
IC50 (CHOC5 (MDR)): 0.6 µg/mL (≈ 1.16 µM)
IC50 (P-388): 1.5 µg/mL (≈ 2.91 µM)
IC50 (P-388/SCHABEL (MDR)): 2 µg/mL (≈ 3.88 µM)
